DBAASP
In brackets after ≈: the same amount, converted by molar mass.

How the values were obtained:
Test in all cases: ≥ marks a high value that may be exact or a test limit, other limits are often not marked, values filed in µg/mL are converted to µM
Staphylococcus aureus = tested on: Staphylococcus aureus
[1] = tested on: Salmonella enterica subsp. enterica serovar Choleraesuis CVCC 503
Escherichia coli UB1005 = tested on: Escherichia coli UB1005
[2] = tested on: Salmonella enterica subsp. enterica serovar Typhimurium ATCC 14028
[3] = tested on: Staphylococcus aureus ATCC 43300
[4] = tested on: Salmonella enterica subsp. enterica serovar Pullorum C79-13
[5] = tested on: Salmonella enterica subsp. enterica serovar Typhimurium C77-31
[6] = tested on: Staphylococcus epidermidis ATCC 12228
[7] = tested on: Enterococcus faecalis ATCC 29212
Streptococcus agalactiae = tested on: Streptococcus agalactiae
[8] = tested on: Escherichia coli ATCC 25922
[9] = tested on: Staphylococcus aureus ATCC 29213
Bacillus cereus AS1.126 = tested on: Bacillus cereus AS1.126
Escherichia coli AS1.349 = tested on: Escherichia coli AS1.349
[10] = tested on: Pseudomonas aeruginosa CGMCC 1.860
[11] = tested on: Enterococcus faecium CGMCC 1.2334
[12] = tested on: Enterococcus faecalis CGMCC 1.595
[13] = tested on: Staphylococcus aureus AS1.72
[14] = tested on: Lactococcus lactis AS1.1690
[15] = tested on: Pseudomonas aeruginosa K799
[16] = tested on: Staphylococcus aureus ATCC 25923
[17] = tested on: Staphylococcus epidermidis C621
[18] = tested on: Salmonella enterica subsp. enterica serovar Typhimurium ATCC 14028s
Pseudomonas aeruginosa = tested on: Pseudomonas aeruginosa
Bacillus subtilis 168 = tested on: Bacillus subtilis 168
Escherichia coli B = tested on: Escherichia coli B

MIC (Staphylococcus aureus) [µM]	MIC (Escherichia coli UB1005) [µM]	MIC [2] [µM]	MIC [3] [µM]	MIC [4] [µM]	MIC [5] [µM]	MIC [6] [µM]	MIC [7] [µM]	MIC (Streptococcus agalactiae) [µM]	MIC [8] [µM]	MIC [9] [µM]	SMILES	MIC [1] [µM]	other results
4 (≈ 13.3 µg/mL)	2 (≈ 6.63 µg/mL)	2 (≈ 6.63 µg/mL)	4 (≈ 13.3 µg/mL)	4 (≈ 13.3 µg/mL)	2 (≈ 6.63 µg/mL)	4 (≈ 13.3 µg/mL)	8 (≈ 26.5 µg/mL)	2 (≈ 6.63 µg/mL)			CC[C@H](C)[C@H](N)C(=O)N[C@H](C(=O)N[C@H](C(=O)N[C@@H](CS)C(=O)N[C@@H](CCCN=C(N)N)C(=O)N[C@@H](CCCCN)C(=O)N1CCC[C@H]1C(=O)N[C@H](C(=O)N[C@H](C(=O)N[C@@H](CS)C(=O)N[C@@H](CCCN=C(N)N)C(=O)N[C@@H](CCCCN)C(=O)N1CCC[C@H]1C(=O)N[C@H](C(=O)N[C@H](C(=O)N[C@@H](CS)C(=O)N[C@@H](CCCN=C(N)N)C(=O)N[C@@H](CCCCN)C(=O)N1CCC[C@H]1C(=O)N[C@H](C(=O)N[C@H](C(=O)N[C@@H](CS)C(=O)N[C@@H](CCCN=C(N)N)C(=O)N[C@@H](CCCCN)C(=O)N1CCC[C@H]1C(=O)N[C@H](C(=O)N[C@H](C(=O)N[C@H](C(N)=O)[C@@H](C)CC)[C@@H](C)CC)[C@@H](C)CC)[C@@H](C)CC)[C@@H](C)CC)[C@@H](C)CC)[C@@H](C)CC)[C@@H](C)CC)[C@@H](C)CC)[C@@H](C)CC)[C@@H](C)CC [IIICRKPIICRKPIICRKPIICRKPIII]	2 (≈ 6.63 µg/mL)	
> 64	8 (≈ 22 µg/mL)	8 (≈ 22 µg/mL)	> 64	≥ 64	8 (≈ 22 µg/mL)	> 64	> 64	≥ 64	8 (≈ 22 µg/mL)	> 64	CC(C)[C@H](N)C(=O)N[C@@H](CS)C(=O)N[C@@H](CCCN=C(N)N)C(=O)N[C@@H](CCCCN)C(=O)N1CCC[C@H]1C(=O)N[C@H](C(=O)N[C@H](C(=O)N[C@@H](CS)C(=O)N[C@@H](CCCN=C(N)N)C(=O)N[C@@H](CCCCN)C(=O)N1CCC[C@H]1C(=O)N[C@H](C(=O)N[C@H](C(=O)N[C@@H](CS)C(=O)N[C@@H](CCCN=C(N)N)C(=O)N[C@@H](CCCCN)C(=O)N1CCC[C@H]1C(=O)N[C@H](C(=O)N[C@H](C(=O)N[C@@H](CS)C(=O)N[C@@H](CCCN=C(N)N)C(=O)N[C@@H](CCCCN)C(=O)N1CCC[C@H]1C(=O)N[C@H](C(N)=O)C(C)C)C(C)C)C(C)C)C(C)C)C(C)C)C(C)C)C(C)C [VCRKPVVCRKPVVCRKPVVCRKPV]	≥ 64	
											CC(C)[C@H](N)C(=O)N[C@@H](Cc1c[nH]c2ccccc12)C(=O)N[C@@H](CCCN=C(N)N)C(=O)N[C@@H](CCCN=C(N)N)C(=O)N[C@@H](Cc1c[nH]c2ccccc12)C(=O)N[C@@H](CCCN=C(N)N)C(=O)N[C@@H](CCCN=C(N)N)C(=O)N[C@@H](Cc1ccccc1)C(=O)N[C@@H](Cc1c[nH]c2ccccc12)C(=O)O [VWRRWRRFW]		MIC (Bacillus cereus AS1.126): 6.25 µM (≈ 9.05 µg/mL); MIC (Escherichia coli AS1.349): 12.5 µM (≈ 18.1 µg/mL); MIC [10]: 6.25 µM (≈ 9.05 µg/mL); MIC [11]: 12.5 µM (≈ 18.1 µg/mL); MIC [12]: 12.5 µM (≈ 18.1 µg/mL); MIC [13]: 12.5 µM (≈ 18.1 µg/mL); MIC [14]: 12.5 µM (≈ 18.1 µg/mL)
> 64	4 (≈ 8.6 µg/mL)	8 (≈ 17.2 µg/mL)	> 64	≥ 64	8 (≈ 17.2 µg/mL)	> 64	> 64	≥ 64	8 (≈ 17.2 µg/mL)	> 64	CC[C@H](C)[C@H](N)C(=O)N[C@@H](CS)C(=O)N[C@@H](CCCN=C(N)N)C(=O)N[C@@H](CCCCN)C(=O)N1CCC[C@H]1C(=O)N[C@H](C(=O)N[C@H](C(=O)N[C@@H](CS)C(=O)N[C@@H](CCCN=C(N)N)C(=O)N[C@@H](CCCCN)C(=O)N1CCC[C@H]1C(=O)N[C@H](C(=O)N[C@H](C(=O)N[C@@H](CS)C(=O)N[C@@H](CCCN=C(N)N)C(=O)N[C@@H](CCCCN)C(=O)N1CCC[C@H]1C(=O)N[C@H](C(N)=O)[C@@H](C)CC)[C@@H](C)CC)[C@@H](C)CC)[C@@H](C)CC)[C@@H](C)CC [ICRKPIICRKPIICRKPI]	16 (≈ 34.4 µg/mL)	
> 64	8 (≈ 15.1 µg/mL)	32 (≈ 60.5 µg/mL)	> 64	≥ 32	≥ 32	> 64	> 64	≥ 64	8 (≈ 15.1 µg/mL)	> 64	CC[C@H](C)[C@H](N)C(=O)N[C@H](C(=O)N[C@H](C(=O)N[C@@H](CS)C(=O)N[C@@H](CCCN=C(N)N)C(=O)N[C@@H](CCCCN)C(=O)N1CCC[C@H]1C(=O)N[C@H](C(=O)N[C@H](C(=O)N[C@@H](CS)C(=O)N[C@@H](CCCN=C(N)N)C(=O)N[C@@H](CCCCN)C(=O)N1CCC[C@H]1C(=O)N[C@H](C(=O)N[C@H](C(=O)N[C@H](C(N)=O)[C@@H](C)CC)[C@@H](C)CC)[C@@H](C)CC)[C@@H](C)CC)[C@@H](C)CC)[C@@H](C)CC)[C@@H](C)CC [IIICRKPIICRKPIII]	≥ 32	
	2.62 (≈ 3.99 µg/mL)						> 21				CC[C@H](C)[C@@H]1NC(=O)[C@H](CCCN=C(N)N)NC(=O)[C@H](C(C)C)NC(=O)[C@H](CCCN=C(N)N)NC(=O)[C@@H]2CCCN2C(=O)[C@@H](NC(=O)[C@H](CC(C)C)NC(=O)[C@@H](N)CCCN=C(N)N)CSSC[C@@H](C(=O)N[C@@H](CCCN=C(N)N)C(N)=O)NC(=O)[C@H](C(C)C)NC(=O)[C@H](CCCN=C(N)N)NC1=O [RLCPRVRIRVCR]		MIC [15]: 10.5 µM (≈ 16 µg/mL); MIC [16]: > 21 µM; MIC [17]: 10.5 µM (≈ 16 µg/mL); MIC [18]: 21 µM (≈ 31.9 µg/mL)
15.6 (≈ 28 µg/mL)											CC[C@H](C)[C@H](NC(=O)[C@H](CCCCN)NC(=O)[C@H](CCCCN)NC(=O)[C@H](CC(C)C)NC(=O)[C@@H](NC(=O)[C@H](CCCCN)NC(=O)[C@H](CCCCN)NC(=O)[C@H](Cc1c[nH]c2ccccc12)NC(=O)[C@H](CC(N)=O)NC(=O)[C@@H](N)C(C)C)C(C)C)C(=O)N[C@H](C(=O)N[C@@H](CCCCN)C(=O)N[C@H](C(=O)N[C@@H](C)C(=O)N[C@@H](CCCCN)C(N)=O)C(C)C)[C@@H](C)CC [VNWKKVLKKIIKVAK]		MIC (Pseudomonas aeruginosa): 19 µM (≈ 34.1 µg/mL); MIC (Bacillus subtilis 168): 0.7 µM (≈ 1.26 µg/mL); MIC (Escherichia coli B): 0.7 µM (≈ 1.26 µg/mL)
